Where two headings read alike, the source gives them in different places.
Columns and labels:
[1] = set-up: method as in Wang et al., 2023; conditions: rats, with almonertinib; ref Wang et al., 2023; cited from earlier work
[2] = Pharmacokinetic study of apixaban in rats, alone and after ribociclib (UPLC-MS/MS plasma levels); format: in vivo, Sprague-Dawley rats; conditions: for AUC(0-inf) / Cmax / Tmax / half-life / CL/F / MRT inf / MRT last / Vd/F: po, 0.5 mg/kg; for CL/F: read-out: CLz/F (converted); for MRT inf: read-out: MRT0- ∞; for MRT last: read-out: MRT0-t; for Vd/F: read-out: Vz/F
Protocol: Experimental animals were randomly divided into nine groups (n = 6, Table 1). Ribociclib was suspended in methylcellulose (MC), rivaroxaban was prepared in hydroxypropyl methylcellulose (HPMC), and apixaban was suspended in 5% DMSO in water. To achieve steady-state blood concentrations, a drug typically requires five to seven half-lives. Based on this principle, ribociclib was administered orally for eight consecutive days, while rivaroxaban and apixaban were administered orally for five consecutive days to ensure steady-state concentrations were reached before further analysis.
Approximately 0.1 mL of blood was collected into heparinized tubes via the orbitalat specified time points before and after the final drug administration. For apixaban, blood samples were collected at 0, 0.083, 0.167, 0.25, 0.333, 0.5, 0.75, 1, 3, 5, 7, 10, and 12 h. For rivaroxaban, sampling was conducted at 0, 0.167, 0.333, 0.5, 0.75, 1.5, 2, 3, 4, 5, 6, 8, 10, 12, and 24 h. For ribociclib, samples were taken at 0, 0.5, 1, 2, 4, 5, 6, 8, 10, 12, 24, and 48 h. Blood samples were centrifuged at 3,500 rpm for 10 min, and the supernatant was collected and stored at −80°C until processing for UPLC-MS/MS.
Apixaban and rivaroxaban concentrations in plasma samples were determined using our previously established UPLC-MS/MS method ([Wang et al., 2023]). Ribociclib concentrations were quantified using an LC-30A UPLC system (Shimadzu, Kyoto, Japan) coupled with a Sciex Triple Quad 5500 tandem quadrupole mass spectrometer (AB Sciex, Framingham, MA, United States) equipped with an electrospray ionization interface. Chromatographic separation was performed using a Welch Boltimate column (2.1 mm × 100 mm, 2.7 μm) maintained at 40°C. The mobile phase was composed of water containing 0.1% formic acid (phase A) and acetonitrile (phase B). The flow rate was held constant at 0.3 mL/min. The gradient elution protocol was as follows: 0–2.5 min, 60% B; 2.5–3.5 min, 60%–90% B; 3.5–5.5 min, 90% B; 5.5–5.6 min, 90%–60% B; 5.6–6.6 min, 60% B. The injection volume was 1 μL.
Pharmacokinetic parameters were calculated based on a non-compartmental model using DAS 2.1.1 Software (Mathematical Pharmacology Professional Committee of China, Shanghai, China). The area under the concentration–time curve (AUC), maximum plasma concentration (Cmax), time to maximum plasma concentration (Tmax), the time required to eliminate half of the plasma drug concentration (t1/2), clearance of drug plasma volume per unit time (CLz/F), apparent volume distribution (Vz/F), mean residence time (MRT) and the absorption rate constant (Ka) are all expressed as mean ± standard deviation (SD). SPSS 25.0 statistical software (SPSS Inc., Chicago, IL, United States) was applied to statistically analyze the mainpharmacokinetic parameters. Shapiro-Wilk test was used to assess whether the data were normally distributed, t test was used for parameters conforming to the normal distribution, and Mann-Whitney U test was used for parameters not conforming to the normal distribution. Statistical comparisons were conducted using a analysis of variance, t-test or nonparametric rank-sum test depending on the data type. A P-value <0.05 was deemed statistically significant.

[3] = set-up: method as in Hindley et al., 2023; conditions: ref Hindley et al., 2023; cited from earlier work
[4] = API 0.5 mg/kg after multiple doses of RIBO vs API alone
[5] = Sprague-Dawley, rat, plasma, API 0.5 mg/kg after RIBO 60 mg/kg for 8 days
[6] = Sprague-Dawley, rat, plasma, oral API 0.5 mg/kg alone

In the case of COc1ccc(-n2nc(C(N)=O)c3c2C(=O)N(c2ccc(N4CCCCC4=O)cc2)CC3)cc1 [API, apixaban], the “increase in AUC” value [1] is listed as “over three fold increases”, the “increase in Cmax” value [1] is listed as “over three fold increases” and the AUC(0-t) ([2]; API 0.5 mg/kg after RIBO 60 mg/kg for 8 days) is listed as 608.21 ± 196.17 ng·h/mL. The “CLz/F was decreased by” value [2, 4] was 32.23%, the “difference in AUC0-t” value [2, 4] was “not statistically significant” and the “difference in Cmax” value [2, 4] was “not statistically significant”. The “difference in Tmax” value [2, 4] was “not statistically significant”, the “increase of MRT0- ∞” value [2, 4] was 61.41% and the “increase of MRT0-t” value [2, 4] was 14.45%. The “increase of t1/2z” value [2, 4] was 115.90%, the AUC(0-t) ([2]; Sprague-Dawley, rat, plasma, oral API 0.5 mg/kg alone, read-out: AUC0-t) was 409 ± 55.3 ng·h/mL and the AUC(0-inf) [2, 5] was 675 ± 221 ng·h/mL. The Cmax [2, 5] was 156 ± 42.4 ng/mL, the Tmax [2, 5] was 0.75 ± 0.16 h and the half-life [2, 5] was 5.16 ± 3.22 h. The CL/F [2, 5] was 13.7 mL/min/kg, the MRT inf [2, 5] was 4.81 ± 2.07 h and the MRT last [2, 5] was 3.01 ± 0.3 h. It also gave a Vd/F [2, 5] of 5.57 ± 2.63 L/kg, an AUC(0-inf) [2, 6] of 420 ± 54.2 ng·h/mL and a Cmax [2, 6] of 140 ± 29.4 ng/mL. For the same molecule, the Tmax [2, 6] was 0.88 ± 0.14 h, the half-life [2, 6] was 2.39 ± 0.53 h and the CL/F [2, 6] was 20.2 mL/min/kg. The MRT inf [2, 6] was 2.98 ± 0.32 h, the MRT last [2, 6] was 2.63 ± 0.1 h and the Vd/F [2, 6] was 4.16 ± 1.07 L/kg. For the same molecule, the plasma protein binding [3] was “approximately 87%”.
